Assay results reported in publication PMC4096598 (PLoS ONE, 2014).
Several values for one entry are separate records, joined by “and”; a condition that tells them apart may be missing. Equal values may be shown once. Read-outs that look alike come from different tables or passages of the source. Ends that are not written are not given here.

Tests used:
[1] = system: Mycobacterium tuberculosis MDR (clinically isolated multidrug resistant strain); conditions: MDR (clinically isolated multidrug resistant strain, 24 h)
[2] = system: Mycobacterium tuberculosis MDR (clinically isolated multidrug resistant strain); conditions: literature value ref Rastogi, et al., 1996 [55]; cited from earlier work
[3] = not given; remark: listed apart in the source

For FWGLKGLKKFSKKL [Pin2 [14]], the “MIC Mycobacterium tuberculosis MDR” value [1] was 6 ± 1.8 µM.

In the case of `CO[C@H]1/C=C/O[C@@]2(C)Oc3c(C)c(O)c4c(O)c(c(/C=N/N5CCN(C)CC5)c(O)c4c3C2=O)NC(=O)/C(C)=C\C=C\[C@H](C)[C@H](O)[C@@H](C)[C@@H](O)[C@@H](C)[C@H](OC(C)=O)[C@@H]1C` [Rifampicin], the “MIC Mycobacterium tuberculosis MDR” value [2] is given as 32 µg/mL and 38.9 µM.

For FWGALAKGALKLIGSLFSSFSKKD [Pin2 [G]], the alpha-helical structure in absence of TFE was 20%, the maximum alpha-helical structure [3] was 60% and the “MIC Mycobacterium tuberculosis MDR” value [1] was 18.7 µM.

For FWGLKGLKGPGKFSKKL [Pin2 [17]], the “MIC Mycobacterium tuberculosis MDR” value [1] was 14.8 ± 5.2 µM.

Compound FWGALAKGALKLIGPGSLFSSFSKKD [Pin2 [GPG]] has a maximum alpha-helical structure [3] of 60%.

For “FWGALAKGALKLIPSLFSSFSKKD [Pin2, Pandinin 2, reference compound]”, the “MIC Mycobacterium tuberculosis MDR” value [1] was 33.1 µM.

In the case of `CC[C@@H](CO)NCCN[C@@H](CC)CO` [Ethambutol], the “MIC Mycobacterium tuberculosis MDR” value [2] is given as 20 µg/mL and 97 µM.
